# In ChEMBL document CHEMBL5537186 (J Med Chem, 2024):
# Columns and labels:
# [1] = Metabolic stability in human hepatocytes assessed as compound remaining measured after 60 mins; format: ADME, cell-based, Hepatocyte; conditions: read-out: Stability
# [2] = Lipophilicity, logD of compound at pH 7.4; format: physicochemical; conditions: buffer
# [3] = Kinetic aqueous solubility of compound at pH 7.4; format: physicochemical; conditions: read-out: Kinetic_solubility
remaining at 1 h [1] [%],logD [2],solubility kinetic [3] [µM],SMILES
45,3.84,56,Cc1ccc(NC(=O)N2CC[C@@H](CC(F)(F)F)C2)cc1-c1cc(O[C@@H](C)CO)nc(N2CCOCC2)c1
62,3.86,15,Cc1ccc(NC(=O)N2CC[C@@H](CC(F)(F)F)C2)cc1-c1cc(OCC(C)(C)O)nc(N2CCOCC2)c1
–,3.67,43,Cc1ccc(NC(=O)N2CC[C@H](CC(F)(F)F)C2)cc1-c1cc(OCCO)nc(N2CCOCC2)c1
